This assay concerns the target T1, sodium-proton exchanger of subtype 3 (NHE3) (Homo sapiens, UniProt P48764).
T1 construct: expressed in transfected cells
T1 sequence (P48764 26-834): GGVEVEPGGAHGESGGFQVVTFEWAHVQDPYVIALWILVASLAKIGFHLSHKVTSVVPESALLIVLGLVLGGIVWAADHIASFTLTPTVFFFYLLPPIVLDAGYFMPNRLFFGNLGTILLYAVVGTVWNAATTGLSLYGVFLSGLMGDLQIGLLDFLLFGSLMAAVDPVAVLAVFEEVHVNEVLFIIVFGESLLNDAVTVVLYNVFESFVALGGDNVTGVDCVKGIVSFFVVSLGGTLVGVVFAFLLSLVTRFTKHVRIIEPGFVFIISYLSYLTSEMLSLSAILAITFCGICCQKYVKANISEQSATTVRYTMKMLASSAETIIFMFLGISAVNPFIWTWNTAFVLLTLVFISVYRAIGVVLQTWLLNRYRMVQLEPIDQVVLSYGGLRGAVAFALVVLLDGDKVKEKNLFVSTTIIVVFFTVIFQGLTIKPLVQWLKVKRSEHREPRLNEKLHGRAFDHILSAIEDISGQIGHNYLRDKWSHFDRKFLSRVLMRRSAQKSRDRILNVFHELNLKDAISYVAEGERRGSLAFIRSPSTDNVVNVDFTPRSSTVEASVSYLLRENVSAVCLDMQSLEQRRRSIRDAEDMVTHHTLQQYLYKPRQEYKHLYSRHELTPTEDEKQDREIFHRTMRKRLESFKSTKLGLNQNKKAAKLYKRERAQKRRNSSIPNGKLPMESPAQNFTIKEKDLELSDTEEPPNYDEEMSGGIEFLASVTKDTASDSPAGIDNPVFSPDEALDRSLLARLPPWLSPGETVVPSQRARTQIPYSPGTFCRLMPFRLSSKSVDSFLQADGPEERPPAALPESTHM
Description: Recovery of intracellular pH (pHi) after acidification in LAP1 cells stably expressing NHE3 (BCECF fluorescence, FLIPR). It counts as cell-based. The settings on record: LAP1 cells stably expressing NHE3, pH recovery after acidification, range 1 is % inhibition at 10 μM.

Where [1] appears, read: read-out: Activity range (inhibitory effect on NHE3).

The structures appear in SMILES notation. Read-outs that look alike come from different tables or passages of the source.

With `CCN(CC)[C@@H]1Cc2ccccc2[C@H]1Oc1cccc(N2CCNCC2)c1` (racemic) [Example 626, Diethyl-[rac-trans-(1,2)-1-(3-piperazin-1-ylphenoxy)indan-2-yl]amine], the IC50 under setting [1] fell in the range of 1 to 10 µM.
On to `CS(=O)(=O)c1ccc(O[C@H]2c3cc(Cl)cc(F)c3C[C@@H]2N2CCNCC2)cc1` (racemic) [Example 292, 1-[rac-trans-(1,2)-6-chloro-4-fluoro-1-(4-methanesulfonylphenoxy)indan-2-yl]piperazine], for which, under setting [1], the IC50 was below 1 µM.
The same measure, in the same setting: then `NS(=O)(=O)c1cc(Cl)c(O[C@H]2c3ccccc3C[C@@H]2N2CCCC2)c(Cl)c1` (racemic) [Example 402, 3,5-dichloro-4-(rac-trans-(1,2)-2-pyrrolidin-1-ylindan-1-yloxy)benzenesulfonamide], with 1 to 10 µM.
As for `N#Cc1ccc(O[C@H]2c3ccccc3C[C@@H]2CN2CCCC2)cc1Cl` (racemic) [Example 391, 2-chloro-4-(2-pyrrolidin-1-ylmethylindan-1-yloxy)benzonitrile], under setting [1], the inhibition at 10 µM is 20 to 50%.
Consider `Cc1nnc(C)n1-c1ccc(O[C@H]2c3cc(Cl)cc(Cl)c3C[C@@H]2N2CCCN(C)CC2)cc1` [Example 349, 1-{trans-(1S,2S)-4,6-dichloro-1-[4-(3,5-dimethyl-[1,2,4]triazol-4-yl)phenoxy]indan-2-yl}-4-methyl-[1,4]diazepane], for which, under setting [1], the IC50 is below 1 µM.
Same read-out and setting: then `CC1(C)NC(=O)N(c2ccc(F)c(O[C@H]3c4cc(Cl)cc(Cl)c4C[C@@H]3N3CC[C@@H](O)C3)c2)C1=O` [Example 416, 3-{3-[(1S,2S)-4,6-dichloro-2-((R)-3-hydroxypyrrolidin-1-yl)indan-1-yloxy]-4-fluorophenyl}-5,5-dimethylimidazolidine-2,4-dione], with 1 to 10 µM; and `NCC1CCN([C@@H]2Cc3ccccc3[C@H]2Oc2ccnc3ccccc23)CC1` (racemic) [Example 622, C-{1-[rac-trans-(1,2)-1-(quinolin-4-yloxy)indan-2-yl]piperidin-4-yl}methylamine], with 1 to 10 µM.
`CN(C)S(=O)(=O)c1ccc(O[C@@H]2c3ccccc3C[C@H]2N2CCCC2)c(Cl)c1Cl` (racemic) [Example 362, 2,3-dichloro-N,N-dimethyl-4-(rac-trans-(1,2)-2-pyrrolidin-1-ylindan-1-yloxy)benzenesulfonamide] registered an IC50 (Activity range (inhibitory effect on NHE3)) below 1 µM.
Regarding `NCC1CCN([C@@H]2Cc3ccccc3[C@H]2Oc2ccc(Br)cc2-c2cc[nH]n2)C1` (mixture of isomers) [Example 600, C-(1-{rac-trans-(1,2)-1-[4-bromo-2-(1H-pyrazol-3-yl)phenoxy]indan-2-yl}pyrrolidin-3-yl)methylamine], the IC50 under setting [1] lay in the range of 1 to 10 µM.
On the same count and under the same terms, then `Cc1nnc(C)n1-c1ccc(O[C@H]2c3cc(Cl)cc(Cl)c3C[C@@H]2N2CCS(=O)(=O)CC2)c(F)c1` [Example 565, 4-{trans-(1S,2S)-4,6-dichloro-1-[4-(3,5-dimethyl-[1,2,4]triazol-4-yl)-2-fluorophenoxy]indan-2-yl}thiomorpholine 1,1-dioxide], with below 1 µM.
In the case of `N[C@H]1CCCN([C@H]2CCc3ccccc3[C@@H]2Oc2ccc(OC(F)F)cc2)C1` (racemic) [Example 176, (S)-1-[rac-trans-(1,2)-1-(4-difluoromethoxyphenoxy)-1,2,3,4-tetrahydronaphthalen-2-yl]piperidin-3-ylamine], the inhibition at 10 µM under setting [1] was in the range of 20 to 50%.
Take `Cn1ccn(-c2ccc(Cl)c(O[C@H]3c4cc(Cl)cc(Cl)c4C[C@@H]3N3CC[C@@H](O)C3)c2)c1=O` [Example 335, 1-{4-chloro-3-[(1S,2S)-4,6-dichloro-2-((R)-3-hydroxypyrrolidin-1-yl)indan-1-yloxy]phenyl}-3-methyl-1,3-dihydroimidazol-2-one]: under setting [1], the IC50 was below 1 µM.
On to `O=C1CCC(=O)N1c1cccc(O[C@H]2c3ccccc3C[C@@H]2N2CCCC2)c1` (racemic) [Example 256, 1-[3-(rac-trans-(1,2)-2-pyrrolidin-1-ylindan-1-yloxy)phenyl]pyrrolidine-2,5-dione], for which the IC50 under setting [1] lay in the range of 1 to 10 µM.
Same read-out and setting: then `O=C1CCC(=O)N1c1ccc(O[C@H]2c3cc(Cl)cc(Cl)c3C[C@@H]2N2CC[C@@H](O)C2)c(Cl)c1` [Example 322, 1-{3-chloro-4-[(1S,2S)-4,6-dichloro-2-((R)-3-hydroxypyrrolidin-1-yl)indan-1-yloxy]phenyl}pyrrolidine-2,5-dione], with below 1 µM; and `NCC1CCN([C@@H]2Cc3ccccc3[C@H]2Oc2cccc3[nH]ccc23)C1` (mixture of isomers) [Example 601, C-{1-[rac-trans-(1,2)-1-(1H-indol-4-yloxy)indan-2-yl]pyrrolidin-3-yl}methylamine], with 1 to 10 µM.
On the same count and under the same terms, then `CN1C[C@@H]2CN([C@H]3Cc4c(Cl)cc(Cl)cc4[C@@H]3Oc3ccc(S(C)(=O)=O)cc3)C[C@@H]2C1` [Example 8, 2-[trans-(1S,2S)-4,6-dichloro-1-(4-methanesulfonylphenoxy)indan-2-yl]-5-methyloctahydropyrrolo[3,4-c]pyrrole], with below 1 µM.
Turning to `CS(=O)(=O)c1ccc(O[C@H]2c3cc(Cl)cc(Cl)c3C[C@@H]2N2CCC[C@@H](N)C2)cc1` [Example 102, (R)-1-[trans-(1S,2S)-4,6-dichloro-1-(4-methanesulfonylphenoxy)indan-2-yl]piperidin-3-ylamine], the IC50 under setting [1] was below 1 µM.
Take `Cc1ccc(O[C@H]2c3ccccc3CC[C@@H]2N2CCC[C@@H](N)C2)c(Br)c1` (racemic) [Example 35, (R)-1-[rac-trans-(1,2)-1-(2-bromo-4-methylphenoxy)-1,2,3,4-tetrahydronaphthalen-2-yl]piperidin-3-ylamine]: the inhibition at 10 µM under setting [1] was in the range of 20 to 50%.
As for `Cc1nnc(C)n1-c1ccc(O[C@H]2c3ccccc3C[C@@H]2N2CCCC2)cc1` (racemic) [Example 405, 3,5-dimethyl-4-[4-(rac-trans-(1,2)-2-pyrrolidin-1-ylindan-1-yloxy)phenyl]-4H-[1,2,4]triazole], under setting [1], the IC50 is below 1 µM.
Same read-out and setting: then `CS(=O)(=O)c1ccc(O[C@H]2c3cccc(F)c3C[C@@H]2N2CCCC2)cc1` (racemic) [Example 285, 1-[rac-trans-(1,2)-4-fluoro-1-(4-methanesulfonylphenoxy)indan-2-yl]pyrrolidine], with 1 to 10 µM.
Turning to `CS(=O)(=O)Nc1ccc(C(=O)O[C@H]2c3ccccc3C[C@@H]2N2CCCC2)c(Cl)c1` [Example 394, 2-chloro-4-methanesulfonylaminobenzoic acid (1S,2S)-2-pyrrolidin-1-ylindan-1-yl ester], the IC50 under setting [1] lay within 1 to 10 µM.
Turning to `CC(=O)Nc1cccc(O[C@H]2c3c(Cl)cc(Cl)cc3C[C@@H]2N(C)C)c1` (racemic) [Example 654, N-[3-(rac-trans-(1,2)-5,7-dichloro-2-dimethylaminoindan-1-yloxy)phenyl]acetamide], the inhibition at 10 µM under setting [1] fell in the range of 20 to 50%.
For `COc1cccc(F)c1O[C@@H]1c2ccccc2C[C@H]1N1CCC(CN)CC1` (racemic) [Example 604, C-{1-[rac-trans-(1,2)-1-(2-fluoro-6-methoxyphenoxy)indan-2-yl]piperidin-4-yl}methylamine], the IC50 under setting [1] was below 1 µM.
The same measure, in the same setting: then `COc1cccc(F)c1O[C@@H]1c2ccccc2C[C@H]1N(C)C1CCNCC1` (racemic) [Example 215, [rac-trans-(1,2)-1-(2-fluoro-6-methoxyphenoxy)indan-2-yl]methylpiperidin-4-ylamine], with 1 to 10 µM.
With `N[C@@H]1CCCN([C@H]2CCc3ccccc3[C@@H]2Oc2ccc(F)c(F)c2)C1` (racemic) [Example 51, (R)-1-[rac-trans-(1,2)-1-(3,4-difluorophenoxy)-1,2,3,4-tetrahydronaphthalen-2-yl]piperidin-3-ylamine], under setting [1], the inhibition at 10 µM was in the range of 20 to 50%.
With `Cc1nnc(C)n1-c1ccc(O[C@H]2c3cc(Cl)cc(Cl)c3C[C@@H]2N2CC[C@H](O)C2)c(F)c1` [Example 200, (S)-1-{(1S,2S)-4,6-dichloro-1-[4-(3,5-dimethyl-[1,2,4]triazol-4-yl)-2-fluorophenoxy]indan-2-yl}pyrrolidin-3-ol], under setting [1], the IC50 is below 1 µM.
Same read-out and setting: then `NS(=O)(=O)c1ccc(O[C@H]2c3cc(Cl)ccc3C[C@@H]2N2CCCC2)cc1` (racemic) [Example 473, 4-(rac-trans-(1,2)-6-chloro-2-pyrrolidin-1-ylindan-1-yloxy)benzenesulfonamide], with below 1 µM; and `CCc1nc(C)cn1-c1ccc(O[C@H]2c3cc(Cl)cc(Cl)c3C[C@@H]2N2CC[C@@H](O)C2)cc1` [Example 712, (R)-1-{trans-(1S,2S)-4,6-Dichloro-1-[4-(2-ethyl-4-methyl-imidazol-1-yl)-phenoxy]-indan-2-yl}-pyrrolidin-3-ol], with 1 to 10 µM.
Consider `CC(=O)Nc1cccc(OC2c3ccccc3CC2N2CCCC2)c1` (racemic) [Example 641, N-[3-(rac-trans-(1,2)-2-pyrrolidin-1-ylindan-1-yloxy)phenyl]acetamide], for which, under setting [1], the IC50 is below 1 µM.

The values above are taken from patent US8822449B2, “Substituted aminoindanes and analogs thereof, and the pharmaceutical use thereof” (Sanofi, priority 2008, dated 2014).
